According to patent publication US11883526B2 (priority 2019, dated 2024):

Tests used:
subjects with TRD [1] = details: human, in vivo, other: intranasal
Protocol: FIGS. 53 and 54 present means for blood pressure over time by treatment group in the maintenance phase.
Transient blood pressure increases peaked for the esketamine group at approximately 40 minutes post dose and returned closer to predose levels by 1.5 hours post dose.

[2] = tested on: patients with treatment-resistant depression (TRD); test: Adverse events (Example 7); assay type: in vivo, human; details: for Dissociation, number of participants / Dissociative disorder, % of participants / Dissociative disorder, number of participants / Dizziness, % of participants / Dizziness, number of participants / Dysgeusia, % of participants / Dysgeusia, number of participants / Feeling abnormal, % of participants / Feeling abnormal, number of participants / Headache, % of participants / Headache, number of participants / Hypersomnia, % of participants / Hypersomnia, number of participants / Hypertension, number of participants / Hypoesthesia oral, % of participants / Hypoesthesia oral, number of participants / Insomnia, number of participants / Nasal discomfort, number of participants / Nausea, % of participants / Nausea, number of participants / Oropharyngeal pain, number of participants / Polyuria, number of participants / Sedation, % of participants / Sedation, number of participants / Throat irritation, % of participants / Throat irritation, number of participants / Total with events, % of participants / Total with events, number of participants / Tunnel vision, number of participants / Vertigo, % of participants / Vertigo, number of participants / Vision blurred, number of participants / Dissociation, % of participants / Hypertension, % of participants / Insomnia, % of participants / Nasal discomfort, % of participants / Oropharyngeal pain, % of participants / Polyuria, % of participants / Tunnel vision, % of participants / Vision blurred, % of participants: double-blind
Protocol: Adverse events were monitored throughout the study. Other safety assessments (i.e., laboratory tests, vital signs, physical examination) were performed at pre-specified time points. Vital signs, the Clinician Administered Dissociative States Scale (CADSS; Bremner, “Measurement of dissociative states with the clinician-administered dissociative states scale (CADSS)”, J. Traumatic Stress, 1998, 11(1):125-136), and the 4-item positive symptom subscale from the Brief Psychiatric Rating Scale (BPRS; Overall, “The Brief Psychiatric Rating Scale. Psychological Reports”, 1962, 10:799-812) were assessed pre-dose, at 40 minutes, and 2 hours post-dose.
Safety data were analyzed in Period 1, Period 2, double-blind, and open-label data sets, for all subjects receiving at least 1 dose of study medication.

subjects with TRD [3] = details: human, in vivo, other: intranasal; remark: listed apart in the source
Protocol: The Clinician Administered Dissociative States Scale (CADSS) was measured prior to the start of each dose, at 40 minutes, and 1.5 hours postdose.

Structure (SMILES): CN[C@]1(c2ccccc2Cl)CCCCC1=O [esketamine, (S)-2-(2-chlorophenyl)-2-(methylamino)cyclohexanone]
- blood pressure returned closer to predose levels by (subjects with TRD [1]): ≤ 1.5 hours post dose
- time of peak of transient blood pressure increase post dose (subjects with TRD [1]): approximately 40 minutes
- participants with adverse events leading to discontinuation of study drug ([2]; double-blind phase): 5%
- Dissociation, number of participants ([2]; 28 mg): 0
- Dissociative disorder, % of participants ([2]; 28 mg): (11) %
- Dissociative disorder, number of participants ([2]; 28 mg): 2
- Dizziness, % of participants ([2]; 28 mg): (21) %
- Dizziness, number of participants ([2]; 28 mg): 4
- Dysgeusia, % of participants ([2]; 28 mg): (11) %
- Dysgeusia, number of participants ([2]; 28 mg): 2
- Feeling abnormal, % of participants ([2]; 28 mg): (11) %
- Feeling abnormal, number of participants ([2]; 28 mg): 2
- Headache, % of participants ([2]; 28 mg): (32) %
- Headache, number of participants ([2]; 28 mg): 6
- Hypersomnia, % of participants ([2]; 28 mg): (11) %
- Hypersomnia, number of participants ([2]; 28 mg): 2
- Hypertension, number of participants ([2]; 28 mg): 0
- Hypoesthesia oral, % of participants ([2]; 28 mg): (5) %
- Hypoesthesia oral, number of participants ([2]; 28 mg): 1
- Insomnia, number of participants ([2]; 28 mg): 0
- Nasal discomfort, number of participants ([2]; 28 mg): 0
- Nausea, % of participants ([2]; 28 mg): (11) %
- Nausea, number of participants ([2]; 28 mg): 2
- Oropharyngeal pain, number of participants ([2]; 28 mg): 0
- Polyuria, number of participants ([2]; 28 mg): 0
- Sedation, % of participants ([2]; 28 mg): (5) %
- Sedation, number of participants ([2]; 28 mg): 1
- Throat irritation, % of participants ([2]; 28 mg): (5) %
- Throat irritation, number of participants ([2]; 28 mg): 1
- Total with events, % of participants ([2]; 28 mg): (58) %
- Total with events, number of participants ([2]; 28 mg): 11
- Tunnel vision, number of participants ([2]; 28 mg): 0
- Vertigo, % of participants ([2]; 28 mg): (11) %
- Vertigo, number of participants ([2]; 28 mg): 2
- Vision blurred, number of participants ([2]; 28 mg): 0
- Dissociation, % of participants ([2]; 56 mg): (35) %
- Dissociation, number of participants ([2]; 56 mg): 7
- Dissociative disorder, % of participants ([2]; 56 mg): (5) %
- Dissociative disorder, number of participants ([2]; 56 mg): 1
- Dizziness, % of participants ([2]; 56 mg): (40) %
- Dizziness, number of participants ([2]; 56 mg): 8
- Dysgeusia, % of participants ([2]; 56 mg): (15) %
- Dysgeusia, number of participants ([2]; 56 mg): 3
- Feeling abnormal, % of participants ([2]; 56 mg): (5) %
- Feeling abnormal, number of participants ([2]; 56 mg): 1
- Headache, % of participants ([2]; 56 mg): (15) %
- Headache, number of participants ([2]; 56 mg): 3
- Hypersomnia, number of participants ([2]; 56 mg): 0
- Hypertension, % of participants ([2]; 56 mg): (10) %
- Hypertension, number of participants ([2]; 56 mg): 2
- Hypoesthesia oral, % of participants ([2]; 56 mg): (20) %
- Hypoesthesia oral, number of participants ([2]; 56 mg): 4
- Insomnia, % of participants ([2]; 56 mg): (10) %
- Insomnia, number of participants ([2]; 56 mg): 2
- Nasal discomfort, % of participants ([2]; 56 mg): (10) %
- Nasal discomfort, number of participants ([2]; 56 mg): 2
- Nausea, % of participants ([2]; 56 mg): (20) %
- Nausea, number of participants ([2]; 56 mg): 4
- Oropharyngeal pain, % of participants ([2]; 56 mg): (5) %
- Oropharyngeal pain, number of participants ([2]; 56 mg): 1
- Polyuria, % of participants ([2]; 56 mg): (10) %
- Polyuria, number of participants ([2]; 56 mg): 2
- Sedation, % of participants ([2]; 56 mg): (10) %
- Sedation, number of participants ([2]; 56 mg): 2
- Throat irritation, number of participants ([2]; 56 mg): 0
- Total with events, % of participants ([2]; 56 mg): (80) %
- Total with events, number of participants ([2]; 56 mg): 16
- Tunnel vision, number of participants ([2]; 56 mg): 0
- Vertigo, % of participants ([2]; 56 mg): (5) %
- Vertigo, number of participants ([2]; 56 mg): 1
- Vision blurred, number of participants ([2]; 56 mg): 0
- Dissociation, % of participants ([2]; 84 mg): (24) %
- Dissociation, number of participants ([2]; 84 mg): 4
- Dissociative disorder, % of participants ([2]; 84 mg): (24) %
- Dissociative disorder, number of participants ([2]; 84 mg): 4
- Dizziness, % of participants ([2]; 84 mg): (47) %
- Dizziness, number of participants ([2]; 84 mg): 8
- Dysgeusia, % of participants ([2]; 84 mg): (29) %
- Dysgeusia, number of participants ([2]; 84 mg): 5
- Feeling abnormal, % of participants ([2]; 84 mg): (6) %
- Feeling abnormal, number of participants ([2]; 84 mg): 1
- Headache, % of participants ([2]; 84 mg): (18) %
- Headache, number of participants ([2]; 84 mg): 3
- Hypersomnia, number of participants ([2]; 84 mg): 0
- Hypertension, % of participants ([2]; 84 mg): (6) %
- Hypertension, number of participants ([2]; 84 mg): 1
- Hypoesthesia oral, % of participants ([2]; 84 mg): (12) %
- Hypoesthesia oral, number of participants ([2]; 84 mg): 2
- Insomnia, number of participants ([2]; 84 mg): 0
- Nasal discomfort, % of participants ([2]; 84 mg): (6) %
- Nasal discomfort, number of participants ([2]; 84 mg): 1
- Nausea, % of participants ([2]; 84 mg): (24) %
- Nausea, number of participants ([2]; 84 mg): 4
- Oropharyngeal pain, % of participants ([2]; 84 mg): (12) %
- Oropharyngeal pain, number of participants ([2]; 84 mg): 2
- Polyuria, number of participants ([2]; 84 mg): 0
- Sedation, % of participants ([2]; 84 mg): (6) %
- Sedation, number of participants ([2]; 84 mg): 1
- Throat irritation, % of participants ([2]; 84 mg): (12) %
- Throat irritation, number of participants ([2]; 84 mg): 2
- Total with events, % of participants ([2]; 84 mg): (88) %
- Total with events, number of participants ([2]; 84 mg): 15
- Tunnel vision, % of participants ([2]; 84 mg): (12) %
- Tunnel vision, number of participants ([2]; 84 mg): 2
- Vertigo, % of participants ([2]; 84 mg): (6) %
- Vertigo, number of participants ([2]; 84 mg): 1
- Vision blurred, % of participants ([2]; 84 mg): (12) %
- Vision blurred, number of participants ([2]; 84 mg): 2
- Dissociation, % of participants ([2]; esketamine Total): (20) %
- Dissociation, number of participants ([2]; esketamine Total): 11
- Dissociative disorder, % of participants ([2]; esketamine Total): (13) %
- Dissociative disorder, number of participants ([2]; esketamine Total): 7
- Dizziness, % of participants ([2]; esketamine Total): (36) %
- Dizziness, number of participants ([2]; esketamine Total): 20
- Dysgeusia, % of participants ([2]; esketamine Total): (18) %
- Dysgeusia, number of participants ([2]; esketamine Total): 10
- Feeling abnormal, % of participants ([2]; esketamine Total): (7) %
- Feeling abnormal, number of participants ([2]; esketamine Total): 4
- Headache, % of participants ([2]; esketamine Total): (21) %
- Headache, number of participants ([2]; esketamine Total): 12
- Hypersomnia, % of participants ([2]; esketamine Total): (4) %
- Hypersomnia, number of participants ([2]; esketamine Total): 2
- Hypertension, % of participants ([2]; esketamine Total): (5) %
- Hypertension, number of participants ([2]; esketamine Total): 3
- Hypoesthesia oral, % of participants ([2]; esketamine Total): (13) %
- Hypoesthesia oral, number of participants ([2]; esketamine Total): 7
- Insomnia, % of participants ([2]; esketamine Total): (4) %
- Insomnia, number of participants ([2]; esketamine Total): 2
- Nasal discomfort, % of participants ([2]; esketamine Total): (5) %
- Nasal discomfort, number of participants ([2]; esketamine Total): 3
- Nausea, % of participants ([2]; esketamine Total): (18) %
- Nausea, number of participants ([2]; esketamine Total): 10
- Oropharyngeal pain, % of participants ([2]; esketamine Total): (5) %
- Oropharyngeal pain, number of participants ([2]; esketamine Total): 3
- Polyuria, % of participants ([2]; esketamine Total): (4) %
- Polyuria, number of participants ([2]; esketamine Total): 2
- Sedation, % of participants ([2]; esketamine Total): (7) %
- Sedation, number of participants ([2]; esketamine Total): 4
- Throat irritation, % of participants ([2]; esketamine Total): (5) %
- Throat irritation, number of participants ([2]; esketamine Total): 3
- Total with events, % of participants ([2]; esketamine Total): (75) %
- Total with events, number of participants ([2]; esketamine Total): 42
- Tunnel vision, % of participants ([2]; esketamine Total): (4) %
- Tunnel vision, number of participants ([2]; esketamine Total): 2
- Vertigo, % of participants ([2]; esketamine Total): (7) %
- Vertigo, number of participants ([2]; esketamine Total): 4
- Vision blurred, % of participants ([2]; esketamine Total): (4) %
- Vision blurred, number of participants ([2]; esketamine Total): 2
- deaths ([2]; in vivo): No death
- adverse event incidence: dizziness ([2]; open-label phase): 38.6%
- adverse event incidence: dysgeusia ([2]; open-label phase): 22.8%
- adverse event incidence: headache ([2]; open-label phase): 14.0%
- adverse event incidence: nausea ([2]; open-label phase): 15.8%
- adverse event incidence: sedation ([2]; open-label phase): 10.5%
- participants reporting transient dissociative symptoms ([2]; open-label phase): 24.6%
- participants with adverse events leading to discontinuation of study drug ([2]; open-label phase): 2%
- dissociative/perceptual change symptoms (CADSS) resolved by (subjects with TRD [3]): ≤ 1.5 hours post dose
